Experimental findings from patent publication US20100041903A1, “Ozonized Surfactant” (ERC TECHNOLOGY INC., priority 2006, published 2010) are described below.

One data set concerns Staphyrococcus aureus. The data set is described as follows: Minimum inhibitory concentration test. The class given is cell-based. As to conditions: 24 H, 37° C., Bouillon liquid medium, 1 × 10^7/mL. The source says: (§1) In order to check the antibacterial and antifungal performance of the ozonized surfactant according to the present invention, bacteriostatic and bactericidal effects of the ozonized surfactant against five kinds of microorganisms were examined. The five kinds of target microorganisms were Staphyrococcus aureus as a prokaryotic gram-positive bacterium, Escherichia coli as a prokaryotic gram-negative bacterium, Saccharomyces cerevisiae and Trichophyton mentagrophytes as fungi which are eukaryotic microorganisms, and Cladosporium cladosporioides. One loopful of each strain was inoculated in a medium optimum for the strain, and cultured under culture conditions optimum for the strain to prepare a cell suspension for inoculation. […] 9 mL of each medium shown in Table 1 was dispensed into L-shaped test tubes for a biophotorecorder, and was then sterilized by steam. […] 0.1 mL of the cell suspension for inoculation was inoculated into the graduated dilution series to be tested (the initial number of cells of each microorganism is shown in Table 1). […] In the following tests, they were sterilized in the same manner. [table] […] Another graduated dilution series was prepared between the temporary minimum inhibitory concentration and the concentration of the ozonized surfactant nearest to the temporary minimum inhibitory concentration, at which turbidity occurred. Then, the same operation as described above was again carried out. […] It is to be noted that this MIC test against these five kinds of microorganisms was carried out also using, as a control, the surfactant solution not subjected to ozone treatment.

The test system of data set [1] is Cladosporium cladosporioides. The data set is described as follows: Minimum inhibitory concentration test. The format is cell-based. Conditions: 96 H, 25° C., Sabouraud medium, 1 × 10^5/mL.
From the text: as §1

Another data set deals with Escherichia coli. The data set is described as follows: Minimum inhibitory concentration test. The format is cell-based. As to conditions: 24 H, 30° C., Bouillon liquid medium, 1 × 10^7/mL.
From the text: as §1

The test system of a further data set is Saccharomyces cerevisiae. Nature of the data set: Minimum inhibitory concentration test. The class given is cell-based. As to conditions: 48 H, 28° C., YM liquid medium, 1 × 10^6/mL.
From the text: as §1

In data set [2] the test system is Trichophyton mentagrophytes. Nature of the data set: Minimum inhibitory concentration test. The class given is cell-based. Conditions: 96 H, 25° C., Sabouraud medium, 1 × 10^5/mL.
From the text: as §1

Data set [3] is described as follows: Surface-active property test (contact angle on polyvinyl chloride plate). The format is physicochemical. As to conditions: Surfactant not subjected to ozone treatment; 1 wt % aqueous solution on polyvinyl chloride plate. Here is the method:
The surface-active properties of ozonized surfactants were determined in the following manner. 1 wt % of aqueous solutions of surfactants (Tween 80, polyethylene glycol 10 oleyl ether, and polyethylene glycol 20 oleyl ether (manufactured by Wako Pure Chemical Industries, Ltd.)) were prepared, and each of the solutions was dropped on a polyvinyl chloride plate to measure a contact angle (θ) using a contact angle meter CA-VP (manufactured by Kyowa Interface Science Co., Ltd.). The same measurement was carried out for the ozonized surfactants obtained in Examples 1, 2 and 4.

On to “Polyethylene glycol 10 oleyl ether [Polyethylene glycol (10) oleyl ether]”, for which the minimum inhibitory concentration (with Staphyrococcus aureus; in data set [1]; with Escherichia coli; in the data set on Saccharomyces cerevisiae; in data set [2]) was >1% by weight in each case. Further, the “Contact angle (θ)” value in data set [3] is recorded as 51.9 degree (°).
Turning to “polyethylene glycol 20 oleyl ether [Polyethylene glycol (20) oleyl ether]”, the “Contact angle (θ)” value in data set [3] was 59.4 degree (°).
